Reference: patent EP4725941A1, “ARYLAMIDE DERIVATIVE HAVING ANTITUMOR ACTIVITY” (priority 2020, dated 2021)
Read-outs that look alike come from different tables or passages of the source.

Assays:
A549 = assay: Cell proliferation-inhibiting activity (ATP in viable cells, CellTiter-Glo), A549; format: cell-based, human; conditions: A549, 96 h, read-out: A549 IC50
[1] = Human liver microsome stability; format: in vitro ADME; conditions: human liver microsomes, pH 7.4
NCI-H2122 = assay: Cell proliferation-inhibiting activity (ATP in viable cells, CellTiter-Glo), NCI-H2122; format: cell-based, human; conditions: NCI-H2122, 96 h, read-out: NCI-H2122 IC50
BRAF = biological target: T1, BRAF (Homo sapiens, UniProt P15056); assay: BRAF-inhibiting activity, time-resolved fluorescence-fluorescence resonance energy transfer assay; format: biochemical
T1 construct: purchased Eurofins Genomics KK; (BRAF); Thermo Fisher Scientific Inc. (MEK1)
T1 sequence (P15056 417-766 limits assumed): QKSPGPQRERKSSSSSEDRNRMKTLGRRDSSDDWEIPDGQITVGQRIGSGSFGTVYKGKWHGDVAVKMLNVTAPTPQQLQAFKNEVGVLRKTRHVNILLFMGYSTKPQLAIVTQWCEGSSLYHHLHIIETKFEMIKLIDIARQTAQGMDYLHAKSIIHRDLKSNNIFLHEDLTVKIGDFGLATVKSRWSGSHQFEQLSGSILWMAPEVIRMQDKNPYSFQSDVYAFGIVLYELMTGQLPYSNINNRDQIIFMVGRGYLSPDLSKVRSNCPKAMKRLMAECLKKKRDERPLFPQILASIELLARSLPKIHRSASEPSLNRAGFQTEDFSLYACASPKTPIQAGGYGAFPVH
Procedure: The BRAF-inhibiting activity of the compounds listed in Table 3 below was evaluated by the time-resolved fluorescence-fluorescence resonance energy transfer assay as described below.

MEK1 = biological target: T2, MEK1 (Homo sapiens, UniProt Q02750); assay: MEK1-inhibiting activity, fluorescent polarization method (CRAF/MEK1/ERK2 cascade, IMAP); format: biochemical
T2 construct: purchased Thermo Fisher Scientific Inc. (MEK1, CRAF); Carna Biosciences, Inc. (ERK2)
T2 sequence (Q02750 whole entry): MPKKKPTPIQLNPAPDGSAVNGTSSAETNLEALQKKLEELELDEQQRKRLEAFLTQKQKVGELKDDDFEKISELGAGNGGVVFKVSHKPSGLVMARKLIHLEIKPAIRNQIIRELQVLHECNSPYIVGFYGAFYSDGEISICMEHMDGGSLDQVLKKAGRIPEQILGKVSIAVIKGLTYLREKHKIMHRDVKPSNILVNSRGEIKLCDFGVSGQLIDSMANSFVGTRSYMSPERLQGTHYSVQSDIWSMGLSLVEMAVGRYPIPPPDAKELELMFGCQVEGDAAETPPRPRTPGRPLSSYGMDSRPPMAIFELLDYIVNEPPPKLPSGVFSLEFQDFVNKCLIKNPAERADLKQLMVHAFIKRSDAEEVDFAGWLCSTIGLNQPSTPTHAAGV
Procedure: The MEK1-inhibiting activity of the compounds listed in Table 3 below were evaluated by the fluorescent polarization method as described below.

[2] = human lung cancer cells, 4 days

SMILES: CC(O)CNS(=O)(=O)Nc1nccc(Cc2cc(C(N)=O)c(Nc3ccc(I)cc3F)c(F)c2F)c1F (racemic) [Compound A-17, (+/-)-3,4-difluoro-5-[[3-fluoro-2-(2-hydroxypropylsulfamoylamino)pyridin-4-yl]methyl]-2-(2-fluoro-4-iodoanilino)benzamide]
- IC50 (A549; [2]): 53 nM
- microsomal CLint at 0.99 µM [1]: 6 µL/min/mg
- IC50 (NCI-H2122; [2]): 15 nM
- IC50 (BRAF; Table 3; read-out: BRAF IC50): 4 nM
- IC50 (MEK1): 6 nM

SMILES: CNS(=O)(=O)Nc1nccc(Cc2cc(C(=O)NOC(C)C)c(Nc3ccc(I)cc3F)c(F)c2F)c1F [Compound A-10, 3,4-Difluoro-2-(2-fluoro-4-iodoanilino)-5-[[3-fluoro-2-(methylsulfamoylamino)pyridin-4-yl]methyl]-N-propan-2-yloxybenzamide]
- IC50 (A549; [2]): 0.1 nM
- microsomal CLint at 0.99 µM [1]: 89 µL/min/mg
- IC50 (NCI-H2122; [2]): 0.2 nM
- IC50 (BRAF; read-out: BRAF IC50; Table 3): 7 nM
- IC50 (MEK1; Table 3, read-out: MEK1 IC50): 5 nM

SMILES: COCCNS(=O)(=O)Nc1nccc(Cc2cc(C(=O)NOC(C)C)c(Nc3ccc(I)cc3F)c(F)c2F)c1F [Compound A-11, 3,4-Difluoro-2-(2-fluoro-4-iodoanilino)-5-[[3-fluoro-2-(2-methoxyethylsulfamoylamino)pyridin-4-yl]methyl]-N-propan-2-yloxybenzamide]
- IC50 (A549; [2]): 1 nM
- microsomal CLint at 0.99 µM [1]: 128 µL/min/mg
- IC50 (NCI-H2122; [2]): 1 nM
- IC50 (BRAF; read-out: BRAF IC50; Table 3): 9 nM
- IC50 (MEK1; Table 3, read-out: MEK1 IC50): 7 nM

SMILES: C=Cc1ccc(Nc2c(C(N)=O)cc(Cc3ccnc(NS(=O)(=O)NC)c3F)c(F)c2F)c(F)c1 [Compound A-19, 2-(4-Ethenyl-2-fluoroanilino)-3,4-difluoro-5-[[3-fluoro-2-(methylsulfamoylamino)pyridin-4-yl]methyl]benzamide]
- IC50 (A549; Homo sapiens): 6 nM
- microsomal CLint at 0.99 µM [1]: 35 µL/min/mg
- IC50 (NCI-H2122; Homo sapiens): 5 nM
- IC50 (BRAF; Table 3; read-out: BRAF IC50): 3 nM
- IC50 (MEK1; Table 3, read-out: MEK1 IC50): 30 nM

SMILES: C#Cc1ccc(Nc2c(C(N)=O)cc(Cc3ccnc(NS(=O)(=O)NCCC)c3F)c(F)c2F)c(F)c1 [Compound A-20, 2-(4-ethynyl-2-fluoroanilino)-3,4-difluoro-5-[[3-fluoro-2-(propylsulfamoylamino)pyridin-4-yl]methyl]benzamide]
- IC50 (A549; Homo sapiens): 7 nM
- microsomal CLint at 0.99 µM [1]: 14 µL/min/mg
- IC50 (NCI-H2122; Homo sapiens): 6 nM
- IC50 (BRAF; Table 3; read-out: BRAF IC50): 2 nM
- IC50 (MEK1; Table 3, read-out: MEK1 IC50): 23 nM

SMILES: NC(=O)c1cc(Cc2ccnc(NS(=O)(=O)NCC3COC3)c2F)c(F)c(F)c1Nc1ccc(I)cc1F [Compound A-21, 3,4-difluoro-2-(2-fluoro-4-iodoanilino)-5-[[3-fluoro-2-(oxetan-3-ylmethylsulfamoylamino)pyridin-4-yl]methyl]benzamide]
- IC50 (A549; [2]): 31 nM
- microsomal CLint at 0.99 µM [1]: 4 µL/min/mg
- IC50 (NCI-H2122; [2]): 14 nM
- IC50 (BRAF; read-out: BRAF IC50; Table 3): 4 nM
- IC50 (MEK1; Table 3, read-out: MEK1 IC50): 5 nM

SMILES: CC1(NS(=O)(=O)Nc2nccc(Cc3cc(C(N)=O)c(Nc4ccc(I)cc4F)c(F)c3F)c2F)CC1 [Compound A-23, 3,4-Difluoro-2-(2-fluoro-4-iodoanilino)-5-[[3-fluoro-2-[(1-methylcyclopropyl)sulfamoylamino]pyridin-4-yl]methyl]benzamide]
- IC50 (A549; [2]): 5 nM
- microsomal CLint at 0.99 µM [1]: < 1 µL/min/mg
- IC50 (NCI-H2122; [2]): 1 nM
- IC50 (BRAF; read-out: BRAF IC50; Table 3): 5 nM
- IC50 (MEK1; Table 3, read-out: MEK1 IC50): 35 nM

SMILES: C#Cc1ccc(Nc2c(C(N)=O)cc(Cc3ccnc(NS(=O)(=O)NC)c3F)c(F)c2F)c(F)c1 [Compound A-26, 2-(4-Ethynyl-2-fluoroanilino)-3,4-difluoro-5-[[3-fluoro-2-(methylsulfamoylamino)pyridin-4-yl]methyl]benzamide]
- IC50 (A549; Homo sapiens): 7 nM
- microsomal CLint at 0.99 µM [1]: 13 µL/min/mg
- IC50 (NCI-H2122; Homo sapiens): 2 nM
- IC50 (BRAF; Table 3; read-out: BRAF IC50): 9 nM
- IC50 (MEK1; Table 3, read-out: MEK1 IC50): 5 nM

SMILES: CNS(=O)(=O)Nc1nccc(Cc2cc(C(N)=O)c(Nc3ccc(Br)cc3F)c(F)c2F)c1F [Compound A-27, 2-(4-bromo-2-fluoroanilino)-3,4-difluoro-5-[[3-fluoro-2-(methylsulfamoylamino)pyridin-4-yl]methyl]benzamide]
- IC50 (A549; [2]): 24 nM
- microsomal CLint at 0.99 µM [1]: 4 µL/min/mg
- IC50 (NCI-H2122; [2]): 10 nM
- IC50 (BRAF; read-out: BRAF IC50; Table 3): 7 nM
- IC50 (MEK1; Table 3, read-out: MEK1 IC50): 32 nM

SMILES: NC(=O)c1cc(Cc2ccnc(NS(=O)(=O)NC34CC(C3)C4)c2F)c(F)c(F)c1Nc1ccc(I)cc1F [Compound A-28, 5-[[2-(1-Bicyclo[1.1.1]pentanylsulfamoylamino)-3-fluoropyridin-4-yl]methyl]-3,4-difluoro-2-(2-fluoro-4-iodoanilino)benzamide]
- IC50 (A549; [2]): 5 nM
- microsomal CLint at 0.99 µM [1]: 11 µL/min/mg
- IC50 (NCI-H2122; [2]): 2 nM
- IC50 (BRAF; read-out: BRAF IC50; Table 3): 9 nM
- IC50 (MEK1; Table 3, read-out: MEK1 IC50): 13 nM

SMILES: NC(=O)c1cc(Cc2ccnc(NS(=O)(=O)NC3CCOCC3)c2F)c(F)c(F)c1Nc1ccc(I)cc1F [Compound A-29]
- IC50 (A549; [2]): 28 nM
- microsomal CLint at 0.99 µM [1]: 18 µL/min/mg
- IC50 (NCI-H2122; [2]): 6 nM
- IC50 (BRAF; Table 3; read-out: BRAF IC50): 11 nM
- IC50 (MEK1; Table 3, read-out: MEK1 IC50): 14 nM

SMILES: NC(=O)c1cc(Cc2ccnc(NS(=O)(=O)NC3CCC3)c2F)c(F)c(F)c1Nc1ccc(I)cc1F [Compound A-32, 5-[[2-(Cyclobutylsulfamoylamino)-3-fluoropyridin-4-yl]methyl]-3,4-dif luoro-2-(2-fluoro-4-iodoanilino)benzamide]
- IC50 (A549; [2]): 7 nM
- microsomal CLint at 0.99 µM [1]: 19 µL/min/mg
- IC50 (NCI-H2122; [2]): 5 nM
- IC50 (BRAF; read-out: BRAF IC50; Table 3): 6 nM
- IC50 (MEK1; Table 3, read-out: MEK1 IC50): 25 nM

SMILES: CCS(=O)(=O)Nc1nccc(Cc2cc(C(N)=O)c(Nc3ccc(I)cc3F)c(F)c2F)c1F [Compound A-38, 5-[[2-(Ethylsulfonylamino)-3-fluoropyridin-4-yl]methyl]-3,4-difluoro-2-(2-fluoro-4-iodoanilino)benzamide]
- IC50 (A549; [2]): 66 nM
- microsomal CLint at 0.99 µM [1]: 17 µL/min/mg
- IC50 (NCI-H2122; [2]): 15 nM
- IC50 (BRAF; read-out: BRAF IC50; Table 3): 3 nM
- IC50 (MEK1; Table 3, read-out: MEK1 IC50): 16 nM

SMILES: CCCS(=O)(=O)Nc1nccc(Cc2cc(C(N)=O)c(Nc3ccc(I)cc3F)c(F)c2F)c1F [Compound B-8]
- IC50 (A549; [2]): 95 nM
- microsomal CLint at 0.99 µM [1]: 24 µL/min/mg
- IC50 (NCI-H2122; [2]): 14 nM
- IC50 (BRAF; read-out: BRAF IC50; Table 3): 7 nM
- IC50 (MEK1; Table 3, read-out: MEK1 IC50): 47 nM

SMILES: NC(=O)c1cc(Cc2ccnc(NS(=O)(=O)NCCO)c2F)c(F)c(F)c1Nc1ccc(I)cc1F [Compound B-9, 3,4-Difluoro-5-[[3-fluoro-2-(2-hydroxyethylsulfamoylamino)pyridin-4-yl]methyl]-2-(2-fluoro-4-iodoanilino)benzamide]
- IC50 (A549; [2]): 10 nM
- microsomal CLint at 0.99 µM [1]: 11 µL/min/mg
- IC50 (NCI-H2122; [2]): 7 nM
- IC50 (BRAF; read-out: BRAF IC50; Table 3): 4 nM
- IC50 (MEK1; Table 3, read-out: MEK1 IC50): 2 nM

SMILES: COCCNS(=O)(=O)Nc1cc(Cc2cc(C(N)=O)c(Nc3ccc(I)cc3F)c(F)c2F)ccn1 [Compound C-2, 3,4-Difluoro-2-(2-fluoro-4-iodoanilino)-5-[[2-(2-methoxyethylsulfamoylamino)pyridin-4-yl]methyl]benzamide]
- IC50 (A549; [2]): 16 nM
- microsomal CLint at 0.99 µM [1]: 17 µL/min/mg
- IC50 (NCI-H2122; [2]): 7 nM
- IC50 (BRAF; read-out: BRAF IC50; Table 3): 2 nM
- IC50 (MEK1; Table 3, read-out: MEK1 IC50): 104 nM

SMILES: CNS(=O)(=O)Nc1cc(Cc2cc(C(N)=O)c(Nc3ccc(I)cc3F)c(F)c2F)ccn1 [Compound C-3, 3,4-difluoro-2-(2-fluoro-4-iodoanilino)-5-[[2-(methylsulfamoylamino)pyridin-4-yl]methyl]benzamide]
- IC50 (A549; [2]): 1 nM
- microsomal CLint at 0.99 µM [1]: 9 µL/min/mg
- IC50 (NCI-H2122; [2]): 0.4 nM
- IC50 (BRAF; read-out: BRAF IC50; Table 3): 3 nM
- IC50 (MEK1; Table 3, read-out: MEK1 IC50): 12 nM

SMILES: CNS(C)(=O)=Nc1cc(Cc2cc(C(N)=O)c(Nc3ccc(I)cc3F)c(F)c2F)ccn1 (centres unmarked) [Compound C-4, 3,4-Difluoro-2-(2-fluoro-4-iodoanilino)-5-[[2-[[methyl-(methylamino)-oxo-λ6-sulfanylidene]amino]pyridin-4-yl]methyl]benzamide]
- IC50 (A549; [2]): 7 nM
- microsomal CLint at 0.99 µM [1]: 40 µL/min/mg
- IC50 (NCI-H2122; [2]): 43 nM
- IC50 (BRAF; read-out: BRAF IC50; Table 3): 23 nM
- IC50 (MEK1; Table 3, read-out: MEK1 IC50): 224 nM

SMILES: CNS(=O)(=O)Nc1nccc(Cc2cc(C(N)=O)c(Nc3ccc(I)cc3C)c(F)c2F)c1F [Compound C-5, 3,4-Difluoro-5-[[3-fluoro-2-(methylsulfamoylamino)pyridin-4-yl]methyl]-2-(4-iodo-2-methylanilino)benzamide]
- IC50 (A549; [2]): 22 nM
- microsomal CLint at 0.99 µM [1]: 29 µL/min/mg
- IC50 (NCI-H2122; [2]): 4 nM
- IC50 (BRAF; read-out: BRAF IC50; Table 3): 3 nM
- IC50 (MEK1; Table 3, read-out: MEK1 IC50): 56 nM

SMILES: COCCNS(=O)(=O)Nc1cccc(Cc2cc(C(N)=O)c(Nc3ccc(I)cc3F)c(F)c2F)c1F [Compound D-1, 3,4-Difluoro-2-(2-fluoro-4-iodoanilino)-5-[[2-fluoro-3-(2-methoxyethylsulfamoylamino)phenyl]methyl]benzamide]
- IC50 (A549; [2]): 9 nM
- microsomal CLint at 0.99 µM [1]: 25 µL/min/mg
- IC50 (NCI-H2122; [2]): 5 nM
- IC50 (BRAF; read-out: BRAF IC50; Table 3): 1 nM
- IC50 (MEK1; Table 3, read-out: MEK1 IC50): 96 nM

SMILES: COCC(C)(C)NS(=O)(=O)Nc1cccc(Cc2cc(C(N)=O)c(Nc3ccc(I)cc3F)c(F)c2F)c1F [Compound D-2, 3,4-Difluoro-2-(2-fluoro-4-iodoanilino)-5-[[2-fluoro-3-[(1-methoxy-2-methylpropan-2-yl)sulfamoylamino]phenyl]methyl]benzamide]
- IC50 (A549; [2]): 9 nM
- microsomal CLint at 0.99 µM [1]: 103 µL/min/mg
- IC50 (NCI-H2122; [2]): 5 nM
- IC50 (BRAF; read-out: BRAF IC50; Table 3): 3 nM
- IC50 (MEK1; Table 3, read-out: MEK1 IC50): 242 nM

SMILES: NC(=O)c1cc(Cc2cccc(NS(=O)(=O)NC[C@H]3CCCO3)c2F)c(F)c(F)c1Nc1ccc(I)cc1F [Compound D-3, 3,4-Difluoro-2-(2-fluoro-4-iodoanilino)-5-[[2-fluoro-3-[[(2R)-oxolan-2-yl]methylsulfamoylamino]phenyl]methyl]benzamide]
- IC50 (A549; [2]): 26 nM
- microsomal CLint at 0.99 µM [1]: 68 µL/min/mg
- IC50 (NCI-H2122; [2]): 12 nM
- IC50 (BRAF; read-out: BRAF IC50; Table 3): 1 nM
- IC50 (MEK1; Table 3, read-out: MEK1 IC50): 130 nM
